Experimental data: patent US11433053B2, “LSD1 inhibitor and preparation method and application thereof” (CSPC ZHONGQI PHARMACEUTICAL TECHNOLOGY (SHIJIAZHUANG) CO., …, priority 2017, dated 2022)

Target: human LSD1 (Homo sapiens (Human), UniProt O60341)
Assay: Evaluation of enzyme activity: LSD1 fluorescence coupling enzyme assay (HRP/Amplex Red)
Assay type: biochemical
Details: human LSD1, histone H3(1-21)K4me2 peptide 10 μM, 30 min pre-incubation
Protocol: The purpose of this test is to test the in vitro inhibitory activities of the compounds against LSD1. The enzyme used in this experiment was human LSD1, and the standard substrate was histone H3(1-21)K4me2 peptide (10 μM). HCI-2509 (SP2509) was used as reference compound, and the fluorescence coupling enzyme assay was employed. The production of FAD-dependent H2O2 as a result of demethylase activity of LSD1 was measured by coupling with HRP and Amplex Red. Compounds as well as control compound HCl-2509 were tested in 10-dose IC50 mode with a 3-fold serial dilution in duplicate starting at 10 μm. All compounds were pre-incubated 30 mins with enzyme before added substrate to start reaction. Fluorescence measurement: Ex/Em=535/590 by EnVision.
The test compound's inhibitory activities against LSD11 was classified as: + for IC50≤50 nM; ++ for IC50>50 nM and ≤100 nM; +++ for IC50>100 nM and ≤500 nM, and the results are shown in Table 1.

SMILES	IC50
COC(=O)c1ccc(CN2CCC(c3nc(C4(CN[C@H]5CC5c5ccccc5)CC4)no3)CC2)cc1 (single isomer, unassigned) [Example 165]	0.1 to 0.5 µM
CCN(CC)CC1(CN[C@H]2CC2c2ccccc2)CC1 (stereo partly drawn) [Example 7]	0.1 to 0.5 µM
CCn1ncnc1CNCC1(CN[C@H]2C[C@@H]2c2ccccc2)CC1 [Example 14]	0.1 to 0.5 µM
c1ccc([C@H]2C[C@@H]2NCC2(CNCc3nccs3)CC2)cc1 [Example 16]	0.1 to 0.5 µM
c1ccc(C2C[C@@H]2NCC2(c3noc4ccccc34)CCC2)cc1 (stereo partly drawn) [Example 72]	≤ 0.05 µM
O=C(O)c1ccc(NCC2(CN[C@H]3C[C@@H]3c3ccccc3)CCC2)nc1 [Example 84]	0.1 to 0.5 µM
COc1ccccc1-c1nc(C2(CN[C@H]3CC3c3ccccc3)CCC2)no1 (stereo partly drawn) [Example 90]	≤ 0.05 µM
N#Cc1ccccc1-c1nc(C2(CN[C@H]3CC3c3ccccc3)CCC2)no1 (stereo partly drawn) [Example 91]	≤ 0.05 µM
N#Cc1cccc(-c2nc(C3(CN[C@H]4CC4c4ccccc4)CCC3)no2)c1 (stereo partly drawn) [Example 92]	≤ 0.05 µM
O=C(O)c1ccc2c(c1)CN(CC1(CN[C@H]3C[C@@H]3c3ccccc3)CC1)C2 [Example 99]	0.1 to 0.5 µM
O=C(O)c1ccc(-c2nc(C3(CN[C@H]4CC4c4ccccc4)CC3)no2)cn1 (stereo partly drawn) [Example 102]	0.1 to 0.5 µM
O=C(O)c1ccc(N2CCC(c3nc(C4(CN[C@H]5C[C@@H]5c5ccccc5)CC4)no3)CC2)cc1 [Example 103]	0.1 to 0.5 µM
CC(=O)N1CCC(c2nc(C3(CN[C@H]4C[C@@H]4c4ccccc4)CC3)no2)CC1 [Example 105]	0.05 to 0.1 µM
CS(=O)(=O)n1cc2c(n1)CN(CC1(CN[C@H]3C[C@@H]3c3ccccc3)CC1)C2 [Example 106]	0.1 to 0.5 µM
O=C(O)c1ccc(C(=O)N2CCC(c3nc(C4(CN[C@H]5C[C@@H]5c5ccccc5)CC4)no3)CC2)cc1 [Example 107]	0.1 to 0.5 µM
CN(C)[C@H]1CC[C@H](c2nc(C3(CN[C@H]4C[C@@H]4c4ccccc4)CC3)no2)CC1 [Example 108]	0.1 to 0.5 µM
O=C(O)[C@H](Cc1ccccc1)NCC1(CN[C@@H]2C[C@H]2c2ccccc2)CC1 [Example 112]	0.1 to 0.5 µM
CN(C)[C@H]1CC[C@H](c2nc(C3(CN[C@@H]4C[C@H]4c4ccccc4)CC3)no2)CC1 [Example 115]	0.1 to 0.5 µM
c1ccc(C2C[C@@H]2NCC2(c3cccnc3)CCC2)cc1 (stereo partly drawn) [Example 119]	≤ 0.05 µM
c1ccc(C2C[C@@H]2NCC2(c3ccccc3)CCC2)cc1 (stereo partly drawn) [Example 122]	≤ 0.05 µM
Clc1ccc(C2(CN[C@H]3CC3c3ccccc3)CCC2)cc1 (stereo partly drawn) [Example 123]	≤ 0.05 µM
c1ccc(C2C[C@@H]2NCC2(c3noc(-c4ccccn4)n3)CCC2)cc1 (stereo partly drawn) [Example 125]	≤ 0.05 µM
FC(F)(F)c1ccnc(-c2nc(C3(CN[C@H]4CC4c4ccccc4)CCC3)no2)c1 (stereo partly drawn) [Example 126]	≤ 0.05 µM

SMILES	IC50
c1ccc([C@H]2C[C@@H]2NCC2(c3noc(-c4cncnc4)n3)CCC2)cc1 [Example 128]	0.05 to 0.1 µM
c1ccc(C2C[C@@H]2NCC2(c3noc(-c4cccnc4)n3)CCC2)cc1 (stereo partly drawn) [Example 130]	≤ 0.05 µM
FC(F)(F)c1cc(-c2nc(C3(CN[C@H]4CC4c4ccccc4)CCC3)no2)ccn1 (stereo partly drawn) [Example 131]	≤ 0.05 µM
O=C(O)c1ccccc1-c1nc(C2(CN[C@H]3C[C@@H]3c3ccccc3)CCC2)no1 [Example 134]	0.1 to 0.5 µM
O=C(O)c1cccc(-c2nc(C3(CN[C@H]4CC4c4ccccc4)CCC3)no2)c1 (stereo partly drawn) [Example 135]	0.1 to 0.5 µM
c1ccc([C@H]2C[C@@H]2NCC2(c3cc([C@H]4CCCNC4)on3)CCC2)cc1 [Example 138]	0.05 to 0.1 µM
c1ccc([C@H]2C[C@@H]2NCC2(c3noc([C@@H]4CCCNC4)n3)CC2)cc1 [Example 139]	0.05 to 0.1 µM
N[C@@H](Cc1nc(C2(CN[C@@H]3C[C@H]3c3ccccc3)CC2)no1)C(=O)O [Example 152]	0.1 to 0.5 µM
CC(C)[C@H](N)c1nc(C2(CN[C@@H]3C[C@H]3c3ccccc3)CC2)no1 [Example 154]	0.1 to 0.5 µM
O=C(O)c1ccc(CN2CCC(c3nc(C4(CN[C@@H]5C[C@H]5c5ccccc5)CC4)no3)CC2)cc1 [Example 169]	0.05 to 0.1 µM
O=C(O)c1ccc(CN2CCC(c3nc(C4(CN[C@H]5C[C@@H]5c5ccccc5)CC4)no3)CC2)cc1 [Example 170]	0.1 to 0.5 µM
O=C(O)C1CC2(C1)CC(c1nc(C3(CN[C@H]4CC4c4ccccc4)CC3)no1)C2 (stereo partly drawn) [Example 173]	0.1 to 0.5 µM
O=C(O)[C@H]1CC[C@@H](c2nc(C3(CN[C@H]4C[C@@H]4c4ccccc4)CC3)no2)CC1 [Example 175]	0.1 to 0.5 µM
O=C(O)C12CCC(c3nc(C4(CN[C@H]5C[C@@H]5c5ccccc5)CC4)no3)(CC1)CC2 [Example 177]	0.1 to 0.5 µM
Cc1oc(C2(CN[C@H]3C[C@@H]3c3ccccc3)CCC2)nc1C(=O)O [Example 186]	0.1 to 0.5 µM
Fc1ccc(-c2nc(C3(CN[C@H]4CC4c4ccccc4)CCC3)no2)c(F)c1 (stereo partly drawn) [Example 187]	≤ 0.05 µM
O=C(O)c1ccc(-c2nc(C3(CN[C@H]4CC4c4ccccc4)CCC3)no2)cc1 (stereo partly drawn) [Example 188]	≤ 0.05 µM
N#Cc1cc(F)cc(-c2nc(C3(CN[C@H]4CC4c4ccccc4)CCC3)no2)c1 (stereo partly drawn) [Example 190]	≤ 0.05 µM
Fc1cc(F)c(-c2nc(C3(CN[C@H]4CC4c4ccccc4)CCC3)no2)c(F)c1 (stereo partly drawn) [Example 191]	≤ 0.05 µM
Cc1sc(C2(CN[C@H]3CC3c3ccccc3)CCC2)nc1C(=O)O (stereo partly drawn) [Example 194]	0.1 to 0.5 µM
O=C(O)c1ccc(CNC2(CN[C@H]3C[C@@H]3c3ccccc3)CC2)cc1 [Example 200]	0.1 to 0.5 µM
CC1(C)CCN(CC2(CN[C@H]3C[C@@H]3c3ccccc3)CC2)C1 [Example 202]	0.05 to 0.1 µM

The remaining lines, values ahead:

IC50	SMILES
0.05 to 0.1 µM	CC(C)(C)n1nnc(C2(CN[C@H]3C[C@@H]3c3ccccc3)CC2)n1 [Example 3]
0.05 to 0.1 µM	CN(C)CC1(CN[C@H]2C[C@@H]2c2ccccc2)CC1 [Example 5]
≤ 0.05 µM	Fc1ccccc1CNCC1(CN[C@H]2CC2c2ccccc2)CC1 (stereo partly drawn) [Example 10]
≤ 0.05 µM	c1ccc(C2C[C@@H]2NCC2(CNCc3ccc[nH]3)CC2)cc1 (stereo partly drawn) [Example 11]
0.05 to 0.1 µM	c1ccc([C@H]2C[C@@H]2NCC2(CNCc3cnc[nH]3)CC2)cc1 [Example 12]
≤ 0.05 µM	c1ccc(C2C[C@@H]2NCC2(CNCC3CCNC3)CC2)cc1 (stereo partly drawn) [Example 13]
0.05 to 0.1 µM	FC(F)(F)c1ccc(CNCC2(CN[C@H]3C[C@@H]3c3ccccc3)CC2)cn1 [Example 15]
0.05 to 0.1 µM	c1ccc([C@H]2C[C@@H]2NCC2(CNCc3cnc4n3CCC4)CC2)cc1 [Example 17]
≤ 0.05 µM	Clc1ccc2nc(C3(CN[C@H]4CC4c4ccccc4)CC3)oc2c1 (stereo partly drawn) [Example 46]
0.05 to 0.1 µM	Clc1ccc2oc(C3(CN[C@H]4C[C@@H]4c4ccccc4)CC3)nc2c1 [Example 47]
≤ 0.05 µM	N#Cc1ccc(CNC2(CN[C@H]3CC3c3ccccc3)CCC2)cc1 (stereo partly drawn) [Example 48]
≤ 0.05 µM	Fc1ccc(-c2nc(C3(CN[C@H]4CC4c4ccccc4)CC3)no2)cc1 (stereo partly drawn) [Example 63]
≤ 0.05 µM	c1ccc(C2C[C@@H]2NCC2(c3noc4ccccc34)CC2)cc1 (stereo partly drawn) [Example 71]
0.05 to 0.1 µM	c1ccc([C@H]2C[C@@H]2NCC2(c3nc4ccccc4o3)CC2)cc1 [Example 76]
≤ 0.05 µM	FC1CC(CN[C@H]2CC2c2ccccc2)(c2cccnc2)C1 (stereo partly drawn) [Example 85]
≤ 0.05 µM	OC1CC(CN[C@H]2CC2c2ccccc2)(c2cccnc2)C1 (stereo partly drawn) [Example 86]
≤ 0.05 µM	FC1(F)Oc2ccc(-c3nc(C4(CN[C@H]5CC5c5ccccc5)CCC4)no3)cc2O1 (stereo partly drawn) [Example 93]

IC50	SMILES
≤ 0.05 µM	COc1ccc2nc(-c3nc(C4(CN[C@H]5CC5c5ccccc5)CCC4)no3)sc2c1 (stereo partly drawn) [Example 94]
≤ 0.05 µM	N#Cc1ccc(C(=O)NC2(CN[C@H]3CC3c3ccccc3)CCC2)cc1 (stereo partly drawn) [Example 97]
0.05 to 0.1 µM	CC1CCN(CC2(CN[C@H]3C[C@@H]3c3ccccc3)CC2)C1 (stereo partly drawn) [Example 98]
≤ 0.05 µM	O=C(O)c1ccc(N2CCC(c3nc(C4(CN[C@H]5CC5c5ccccc5)CC4)no3)CC2)cn1 (stereo partly drawn) [Example 104]
≤ 0.05 µM	Cn1cc2c(n1)CN(CC1(CN[C@H]3CC3c3ccccc3)CC1)C2 (stereo partly drawn) [Example 109]
≤ 0.05 µM	Cn1ncc2c1CN(CC1(CN[C@H]3CC3c3ccccc3)CC1)C2 (stereo partly drawn) [Example 110]
≤ 0.05 µM	c1ccc(C2C[C@@H]2NCC2(c3ccccc3)CCCC2)cc1 (stereo partly drawn) [Example 121]
≤ 0.05 µM	c1ccc(C2C[C@@H]2NCC2(c3noc(-c4ccc(-n5cnnc5)cc4)n3)CCC2)cc1 (stereo partly drawn) [Example 136]
≤ 0.05 µM	N[C@H]1CCC[C@@H](c2nc(C3(CN[C@@H]4C[C@H]4c4ccccc4)CC3)no2)C1 [Example 148]
≤ 0.05 µM	O=C(O)[C@H]1C[C@@H](c2nc(C3(CN[C@@H]4C[C@H]4c4ccccc4)CC3)no2)C1 [Example 150]
≤ 0.05 µM	NC1CCN(C(=O)c2nc(C3(CN[C@@H]4C[C@H]4c4ccccc4)CC3)no2)CC1 [Example 160]
≤ 0.05 µM	O=C(O)c1ccc(CN2CCC(Cc3nc(C4(CN[C@H]5CC5c5ccccc5)CC4)no3)CC2)cc1 (stereo partly drawn) [Example 164]
≤ 0.05 µM	COC(=O)[C@H]1CC[C@H](c2nc(C3(CN[C@H]4C[C@@H]4c4ccccc4)CC3)no2)CC1 [Example 172]
≤ 0.05 µM	O=C(O)c1ccc(-c2nc(C3(CN[C@H]4CC4c4ccccc4)CC3)no2)cc1 (stereo partly drawn) [Example 181]
≤ 0.05 µM	Fc1ccccc1-c1nc(C2(CN[C@H]3CC3c3ccccc3)CC2)no1 (stereo partly drawn) [Example 185]
≤ 0.05 µM	CC(C)Oc1ccc(-c2nc(C3(CN[C@H]4CC4c4ccccc4)CCC3)no2)cc1C#N (stereo partly drawn) [Example 189]
